65 molecules from patent US9403798B2, “Triazinone compound and T-type calcium channel inhibitor” (NISSAN CHEMICAL INDUSTRIES, LTD., priority 2012, dated 2016) can be followed below.

T1 sequence (O95180 whole entry): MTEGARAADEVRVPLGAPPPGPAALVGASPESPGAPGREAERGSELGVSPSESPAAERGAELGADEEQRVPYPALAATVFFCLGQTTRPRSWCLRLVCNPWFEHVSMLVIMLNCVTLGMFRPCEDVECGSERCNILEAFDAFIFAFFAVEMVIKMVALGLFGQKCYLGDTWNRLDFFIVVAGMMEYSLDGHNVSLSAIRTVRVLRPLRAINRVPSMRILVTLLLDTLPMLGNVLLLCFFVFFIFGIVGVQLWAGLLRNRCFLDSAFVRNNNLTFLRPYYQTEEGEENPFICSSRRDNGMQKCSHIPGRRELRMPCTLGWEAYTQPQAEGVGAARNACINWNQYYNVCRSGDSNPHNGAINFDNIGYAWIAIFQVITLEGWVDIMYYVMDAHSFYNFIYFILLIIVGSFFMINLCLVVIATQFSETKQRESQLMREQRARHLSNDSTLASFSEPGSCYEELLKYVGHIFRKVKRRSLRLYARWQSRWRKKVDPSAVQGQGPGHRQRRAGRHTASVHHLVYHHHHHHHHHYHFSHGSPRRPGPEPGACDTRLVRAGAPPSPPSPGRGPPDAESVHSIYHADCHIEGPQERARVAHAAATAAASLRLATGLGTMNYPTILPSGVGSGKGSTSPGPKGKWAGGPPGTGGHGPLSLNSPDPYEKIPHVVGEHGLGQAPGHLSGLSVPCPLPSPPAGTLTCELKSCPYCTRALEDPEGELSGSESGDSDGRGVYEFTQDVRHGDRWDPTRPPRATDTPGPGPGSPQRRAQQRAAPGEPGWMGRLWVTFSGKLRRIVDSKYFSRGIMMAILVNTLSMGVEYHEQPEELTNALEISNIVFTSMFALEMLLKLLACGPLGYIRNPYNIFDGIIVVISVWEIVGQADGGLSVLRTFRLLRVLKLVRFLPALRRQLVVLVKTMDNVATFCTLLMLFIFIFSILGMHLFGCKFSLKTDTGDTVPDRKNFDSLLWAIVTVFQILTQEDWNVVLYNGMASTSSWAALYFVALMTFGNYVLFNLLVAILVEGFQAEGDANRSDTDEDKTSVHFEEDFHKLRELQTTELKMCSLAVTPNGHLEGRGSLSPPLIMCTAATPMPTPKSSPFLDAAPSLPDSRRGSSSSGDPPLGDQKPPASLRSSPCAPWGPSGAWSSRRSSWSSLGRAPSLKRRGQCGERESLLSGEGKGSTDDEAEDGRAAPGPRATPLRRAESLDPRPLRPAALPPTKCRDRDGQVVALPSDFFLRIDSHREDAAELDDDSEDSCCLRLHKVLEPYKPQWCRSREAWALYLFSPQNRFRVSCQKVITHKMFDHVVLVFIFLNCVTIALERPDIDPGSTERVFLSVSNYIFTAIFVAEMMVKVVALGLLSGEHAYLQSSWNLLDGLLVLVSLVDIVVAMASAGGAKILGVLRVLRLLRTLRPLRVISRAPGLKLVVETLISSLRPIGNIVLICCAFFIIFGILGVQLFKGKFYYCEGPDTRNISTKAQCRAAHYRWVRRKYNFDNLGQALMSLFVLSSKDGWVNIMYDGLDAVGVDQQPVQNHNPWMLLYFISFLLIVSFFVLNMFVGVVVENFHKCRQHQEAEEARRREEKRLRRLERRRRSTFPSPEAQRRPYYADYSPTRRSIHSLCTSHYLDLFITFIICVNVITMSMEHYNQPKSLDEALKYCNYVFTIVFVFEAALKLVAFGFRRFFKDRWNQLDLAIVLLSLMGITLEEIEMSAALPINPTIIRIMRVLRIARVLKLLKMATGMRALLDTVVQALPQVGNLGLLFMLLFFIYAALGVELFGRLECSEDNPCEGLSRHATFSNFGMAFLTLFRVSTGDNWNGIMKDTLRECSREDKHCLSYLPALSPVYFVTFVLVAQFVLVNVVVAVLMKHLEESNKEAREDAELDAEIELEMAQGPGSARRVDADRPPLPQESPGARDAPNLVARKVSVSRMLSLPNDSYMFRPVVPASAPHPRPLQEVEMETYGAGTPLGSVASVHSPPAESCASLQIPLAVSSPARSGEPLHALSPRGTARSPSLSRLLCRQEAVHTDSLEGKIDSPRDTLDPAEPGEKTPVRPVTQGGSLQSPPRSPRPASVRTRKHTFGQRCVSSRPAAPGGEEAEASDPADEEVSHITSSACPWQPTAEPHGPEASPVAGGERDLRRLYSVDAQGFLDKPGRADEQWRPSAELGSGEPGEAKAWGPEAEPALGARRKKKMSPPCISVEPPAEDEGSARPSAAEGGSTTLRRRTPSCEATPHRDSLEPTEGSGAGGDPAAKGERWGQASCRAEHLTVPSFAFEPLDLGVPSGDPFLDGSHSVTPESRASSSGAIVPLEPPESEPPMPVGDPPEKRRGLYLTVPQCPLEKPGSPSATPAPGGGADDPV

The test has as its target T1, Human T-type calcium channel (Cav 3.2) (Homo sapiens, UniProt O95180).
T1 construct: Edward Perez-Reyes, University of Virginia, USA; host or cells: HEK293
The test is described as follows: Calcium Influx Inhibition Assay. As to conditions: Human T-type calcium channel (Cav 3.2) expressing HEK293 cells, FLIPR Calcium 4 fluorescence. It is filed as cell-based. The method, then: 1. Calcium Influx Inhibition Assay
Human T-type calcium channel (Cav 3.2) expressing HEK293 cells were obtained from Prof. Edward Perez-Reyes, University of Virginia, USA. The calcium-sensitive fluorescent dye used was FLIPR Calcium 4 Assay Kit (Molecular Devices). To a black 96-well plate with a clear bottom coated with type I collagen, the human T-type calcium channel (Cav 3.2) expressing HEK293 cells were seeded and cultured overnight, and the culture medium was removed. A solution of the calcium-sensitive fluorescent dye was added, and the plate was incubated at 37° C. in an atmosphere of 5% carbon dioxide for 30 minutes. To the plate, a diluted solution of a compound was added, and the whole was further incubated at 37° C. in an atmosphere of 5% carbon dioxide for 30 minutes. While fluorescence was continuously analyzed from the bottom with a FlexStation 3 (Molecular Devices), a calcium solution was added. […] From the rise in the fluorescence from the base line, the inhibition percentage was calculated. The logarithms of compound concentrations were plotted with respect to the inhibition activities to give an IC50 value.
Regarding `O=c1nc(N2CC=C(c3ccccc3)CC2)ncn1Cc1ccc(C(F)(F)F)s1` [compound 70], the half-inhibitory concentration (IC50) – broadly, the concentration that gives 50% inhibition – is 19 nM. The same measure for `O=c1nc(N2CC=C(c3ccc(F)cc3)C(O)C2)ncn1Cc1ccc(C(F)(F)F)s1` (centres unmarked) [compound 190]: 3.3 nM; for `O=c1nc(N2CCN(c3ccc(SC(F)(F)F)cc3)CC2)ncn1Cn1ccc(C(F)(F)F)n1` [compound 43]: 440 nM; for `O=c1nc(N2CC=C(c3ccc(F)cc3)C(O)C2)ncn1Cn1ccc(C(F)(F)F)n1` (centres unmarked) [compound 188]: 42 nM.

As for `O=c1nc(N2CC=C(c3ccc(F)cc3)CC2)ncn1Cc1ccc(OCC(F)(F)F)cc1` [compound 468], the half-maximal inhibitory concentration (IC50) worked out at 68 nM. In the case of `CC(=O)OC1CN(c2ncn(Cc3ccc(C(F)(F)F)s3)c(=O)n2)CC=C1c1ccc(F)cc1` (centres unmarked) [compound 476], the IC50 was 61 nM. Next, `Cc1cccc(N2CCN(c3ncn(Cn4ccc(C(F)(F)F)n4)c(=O)n3)CC2)c1` [compound 39]: 210 nM; `O=c1nc(N2CC=C(c3ccc(F)cc3)[C@@H](O)C2)ncn1Cc1ccc(C(F)(F)F)s1` [compound 315]: 0.46 nM; `O=c1nc(N2CCN(c3ccc(F)cc3)CC2)ncn1Cc1ccc(C(F)(F)F)cc1` [compound 3]: 100 nM. The same measure for `O=c1nc(N2CCN(c3ccc(F)cc3)CC2)ncn1Cc1cccc(C(F)(F)F)c1` [compound 8]: 140 nM; for `COc1nc(N2CCN(c3ccc(F)cc3)CC2)nc(=O)n1Cc1ccc(Cl)cc1` [compound 31]: 230 nM; for `O=c1nc(NC2CCC(c3ccc(F)cc3)C2)ncn1Cc1ccc(Cl)cc1` (centres unmarked) [compound 85]: 57 nM. As to `N#Cc1ccc(N2CCN(c3ncn(Cn4ccc(C(F)(F)F)n4)c(=O)n3)CC2)cc1` [compound 49], the concentration for half-maximal inhibition (IC50) is 860 nM.

Turning to `CC(=O)NC1CN(c2ncn(Cc3ccc(C(F)(F)F)s3)c(=O)n2)CC=C1c1ccc(F)cc1` (centres unmarked) [compound 317], the IC50 was 56 nM.

Turning to `O=c1nc(N2CCN(c3ccc(F)cc3)CC2)ncn1Cc1ccc(OC(F)(F)F)cc1` [compound 6], the concentration for half-maximal inhibition (IC50) worked out at 19 nM. The same measure for `COc1ccc(C2=CCN(c3ncn(Cc4ccc(C(F)(F)F)s4)c(=O)n3)CC2)s1` [compound 300]: 160 nM; for `Cc1nc(N2CC=C(c3ccc(F)cc3)[C@@H](O)C2)nc(=O)n1Cc1ccc(C(F)(F)F)s1` [compound 342]: 0.94 nM. On to `Cc1ccccc1N1CCN(c2ncn(Cn3ccc(C(F)(F)F)n3)c(=O)n2)CC1` [compound 59], for which the IC50 was 800 nM. The same measure for `O=c1nc(N2CCN(c3ccc(F)cc3)CC2)ncn1Cc1ccc(C(F)(F)F)o1` [compound 21]: 61 nM; for `Cc1nc(N2CCC(n3cc(Br)cn3)CC2)nc(=O)n1Cc1ccc(C(F)(F)F)s1` [compound 489]: 510 nM. The same measure for `O=c1nc(N2CCN(c3ccc(Cl)cc3)CC2)ncn1Cn1ccc(C(F)(F)F)n1` [compound 38]: 75 nM.

Consider `Cc1nc(Nc2nc(-c3ccc(F)c(F)c3)cs2)nc(=O)n1Cc1ccc(C(F)(F)F)s1` [compound 383], for which the half-maximal inhibitory concentration (IC50) came out at 89 nM.

Regarding `O=c1nc(N2CCN(c3ccc(Cl)cc3F)CC2)ncn1Cn1ccc(C(F)(F)F)n1` [compound 60], the half-maximal inhibitory concentration (IC50) was determined as 420 nM. Next, `O=c1nc(N2CC=C(c3ccc(F)c(Cl)c3)[C@@H](O)C2)ncn1Cc1ccc(C(F)(F)F)s1` [compound 326]: 1.9 nM; `CC(C)(C)c1cc(Cn2cnc(N3CCN(c4ccc(F)cc4)CC3)nc2=O)[nH]n1` [compound 15]: 280 nM.

Turning to `Cc1nc(N2CC=C(c3ccc(F)cc3)[C@@H](O)C2)nc(=O)n1Cc1ccc(OS(=O)(=O)C(F)(F)F)cc1` [compound 213], the concentration for half-maximal inhibition (IC50) was 3.4 nM.

Take `O=c1nc(N2CC=C(c3ccc4ocnc4c3)CC2)ncn1Cc1ccc(C(F)(F)F)s1` [compound 295]: the IC50 amounted to 180 nM. Next, `Cc1cc(F)ccc1C1=CCN(c2nc(C)n(Cc3ccc(C(C)(C)C)s3)c(=O)n2)C[C@@H]1O` [compound 423]: 40 nM; `O=c1nc(N2CCN(c3ccc(F)cc3)CC2)ncn1Cc1cc2cc(Cl)ccc2o1` [compound 18]: 50 nM.

Take `O=c1nc(N[C@@H]2CCCN(c3ccc(F)cc3)C2)ncn1Cc1ccc(Cl)cc1` [compound 82]: the IC50 worked out at 120 nM. Next, `O=c1nc(N2CC=C(c3ccc(F)cc3)C(O)C2)ncn1Cc1ccc(Cl)cc1` (centres unmarked) [compound 90]: 19 nM. Next, `Cc1nc(N2CCN(c3ccc(F)cc3)CC2)nc(=O)n1CC12CC3CC(CC(C3)C1)C2` [compound 461]: 400 nM.

Take `Cc1nc(N2CCC(c3ccc(F)cc3)C(CO)(CO)C2)nc(=O)n1Cc1ccc(C(F)(F)F)s1` (centres unmarked) [compound 485]: the IC50 amounted to 410 nM. The same measure for `Cc1nc(N2CC=C(c3ccc(F)cc3)[C@@H](O)C2)nc(=O)n1C(C)c1ccc(C(F)(F)F)s1` (some centres unmarked) [compound 453]: 24 nM; for `O=c1nc(N2CC=C(c3ccc(F)cc3)CC2)ncn1Cc1ccc(OCC(F)(F)F)nn1` [compound 162]: 600 nM; for `Cc1csc(C2=CCN(c3ncn(Cc4ccc(C(F)(F)F)s4)c(=O)n3)C[C@@H]2O)c1` [compound 327]: 4 nM.

Turning to `Cc1cc(C2=CCN(c3ncn(Cc4ccc(C(F)(F)F)s4)c(=O)n3)C[C@@H]2O)cs1` [compound 333], the 50% inhibitory concentration (IC50) worked out at 1.8 nM.

In the case of `COC1CN(c2ncn(Cc3ccc(C(F)(F)F)s3)c(=O)n2)CC=C1c1ccc(F)cc1` (centres unmarked) [compound 475], the IC50 is 39 nM. Next, `O=c1nc(Nc2ccn(-c3ccc(F)cc3)c2)ncn1Cc1ccc(Cl)cc1` [compound 131]: 200 nM. Consider `O=c1nc(N2CC=C(c3ccc(F)cc3)C(F)C2)ncn1Cc1ccc(Cl)cc1` (centres unmarked) [compound 107], for which the IC50 stood at 76 nM. Turning to `Cc1nc(N2CCN(c3ccc(F)cc3)CC2)nc(=O)n1Cc1ccc(C(F)(F)F)s1` [compound 344], the half-inhibitory concentration (IC50) came out at 12 nM. Next, `Cc1nc(C2=CCN(c3ncn(Cc4ccc(C(C)(C)C)s4)c(=O)n3)C[C@@H]2O)ccc1F` [compound 415]: 16 nM. The same measure for `O=c1nc(N2CCC(c3ccc(F)cc3)C(F)(F)C2)ncn1Cc1ccc(Cl)cc1` (centres unmarked) [466b]: 570 nM; for `O=c1nc(N2CC=C(c3cnn(CC(F)(F)F)c3)CC2)ncn1Cc1ccc(C(F)(F)F)s1` [compound 259]: 600 nM; for `Cc1ccc(C2=CCN(c3nc(C)n(Cc4ccc(OS(=O)(=O)C(F)(F)F)nc4)c(=O)n3)C[C@@H]2O)cc1F` [compound 448]: 16 nM. The same measure for `O=c1nc(N2CC=C(c3ccc(F)cc3)C(O)C2)ncn1Cc1ccc2c(c1)CC(C(F)(F)F)O2` (centres unmarked) [compound 195]: 3.6 nM; for `Cc1nc(N2CC=C(c3ccc(F)cc3)[C@@H](O)C2)nc(=O)n1Cc1cnc(C(F)(F)F)s1` [compound 219]: 5.5 nM. Consider `Cc1ccc(C2=CCN(c3nc(C)n(Cc4ccc(Br)s4)c(=O)n3)C[C@@H]2O)cc1F` [compound 392], for which the IC50 amounted to 1.3 nM.

In the case of `O=c1nc(N2CC=C(c3ccc(Cl)cc3)CC2)ncn1Cc1ccc(C(F)(F)F)s1` [compound 71], the half-inhibitory concentration (IC50) is 24 nM. The same measure for `O=c1nc(N2CC=C(c3ccc(F)c(O)c3)CC2)ncn1Cc1ccc(C(F)(F)F)s1` [compound 304]: 64 nM.

`Cc1nc(N2CC=C(c3ccc(F)cc3)[C@@H](O)C2)nc(=O)n1Cc1ccc(C(F)(F)F)o1` [compound 439]: the IC50 is 6.9 nM. Next, `O=c1nc(N2CCN(c3ccc(F)cc3)CC2)ncn1Cc1csc(C(F)(F)F)n1` [compound 29]: 320 nM; `O=c1nc(N2CC=C(c3ccc(F)cc3)[C@@H](O)C2)ncn1Cc1ccc(OS(=O)(=O)C(F)(F)F)nc1` [compound 208]: 6.2 nM. The same measure for `Cc1csc(C2=CCN(c3nc(C)n(Cc4ccc(C(F)(F)F)s4)c(=O)n3)C[C@@H]2O)c1` [compound 362]: 1.5 nM. Next, `O=c1nc(N2CCC(c3ccc(F)cc3)CC2)ncn1Cc1ccc(Cl)cc1` [compound 114]: 130 nM; `Cc1nc(N2CCN(C34CC5CC(CC(C5)C3)C4)CC2)nc(=O)n1Cc1ccc(C(F)(F)F)s1` [compound 382]: 860 nM.

Regarding `O=c1nc(N2CC=C(c3ccc(F)cc3)[C@H](O)C2)ncn1Cc1ccc(C(F)(F)F)s1` [compound 316], the IC50 came out at 2.3 nM. Next, `Cc1cc(C2=CCN(c3nc(C)n(Cc4cnc(C(F)(F)F)s4)c(=O)n3)C[C@@H]2O)cs1` [compound 493]: 3.7 nM; `CCCc1nc(N2CC=C(c3ccc(F)cc3)CC2)nc(=O)n1Cc1ccc(C(F)(F)F)s1` [compound 460]: 61 nM; `O=c1nc(N2CCN(c3ccc(F)cc3)CC2)ncn1Cc1ccc(C(F)(F)F)s1` [compound 25]: 25 nM. Turning to `CCOC(=O)c1cc(C(C)(C)C)n(Cn2cnc(N3CCN(c4ccc(F)cc4)CC3)nc2=O)n1` [compound 34], the concentration for half-maximal inhibition (IC50) was 520 nM.

Regarding `O=c1nc(N2CC=C(c3ccc(F)cc3)CC2)ncn1Cc1ccc2oc(C(F)(F)F)cc2c1` [compound 184], the IC50 turned out to be 43 nM. With `O=c1nc(N[C@@H]2CCO[C@H](c3ccc(F)cc3)C2)ncn1Cc1ccc(C(F)(F)F)s1` (racemic) [compound 307], the half-maximal inhibitory concentration (IC50) came out at 270 nM.

In the case of `O=c1nc(N2CC=C(c3ccc(F)c(F)c3)CC2)ncn1Cc1ccc(C(F)(F)F)s1` [compound 264], the 50% inhibitory concentration (IC50) stood at 28 nM.

Consider `Cc1cc(Cn2cnc(N3CCN(c4ccc(F)cc4)CC3)nc2=O)sc1Br` [compound 153], for which the half-inhibitory concentration (IC50) was 51 nM.
